The values that follow come from ChEMBL document CHEMBL1641539 (Bioorg Med Chem Lett, 2011).

The target of data set [1] is T1, Serine/threonine-protein kinase 3 (Homo sapiens) (UniProt Q13188).
T1 sequence (whole entry): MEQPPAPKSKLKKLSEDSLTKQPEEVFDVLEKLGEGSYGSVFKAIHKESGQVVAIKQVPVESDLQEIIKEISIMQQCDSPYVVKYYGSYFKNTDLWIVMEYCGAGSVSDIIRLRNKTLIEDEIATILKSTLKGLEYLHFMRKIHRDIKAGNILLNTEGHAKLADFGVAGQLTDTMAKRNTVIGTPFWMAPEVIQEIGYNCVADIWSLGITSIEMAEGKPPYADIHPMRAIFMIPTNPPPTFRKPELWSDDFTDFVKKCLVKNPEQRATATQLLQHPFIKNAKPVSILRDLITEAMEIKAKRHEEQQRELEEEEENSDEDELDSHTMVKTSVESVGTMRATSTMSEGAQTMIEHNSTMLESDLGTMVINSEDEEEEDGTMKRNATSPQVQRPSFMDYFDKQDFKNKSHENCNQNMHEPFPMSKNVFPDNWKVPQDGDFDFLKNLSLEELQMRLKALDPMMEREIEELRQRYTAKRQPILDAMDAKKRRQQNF
The experiment in a line: Inhibition of STK3 at 10 uM after 60 mins by TR-FRET assay. In general terms: In TR-FRET formats the signal depends on donor and acceptor labels being close together.

Data set [2] has as its target Tyrosine-protein kinase Lck (Homo sapiens) (UniProt P06239). As to the kind of experiment: Inhibition of LCK at 10 uM after 60 mins by TR-FRET assay.
Data set [3] has as its target Mitogen-activated protein kinase 10 (Homo sapiens, UniProt P53779). The experiment in a line: Inhibition of recombinant JNK3 after 60 mins by TR-FRET assay.
The target in data set [4] is Tyrosine-protein kinase SYK (Homo sapiens) (UniProt P43405). As to the kind of experiment: Inhibition of SYK at 10 uM after 60 mins by TR-FRET assay.
A short description of data set [5]: Oxidative metabolic stability in human liver microsomes assessed as compound remaining at 2 uM after 30 mins. Type of data set: ADME, Microsome. The conditions noted are these: read-out: Stability. For orientation: Liver microsomes are a subcellular fraction often used to study metabolism.
A short description of data set [6]: Neuroprotective activity in human cortical neurons assessed as inhibition of amyloid-beta-induced toxicity after 2 to 3 days. Type of data set: functional. Conditions: cortical neurone.
In data set [7] the target is Tyrosine-protein kinase JAK1 (Homo sapiens) (UniProt P23458). The experiment in a line: Inhibition of JAK1 at 10 uM after 60 mins by TR-FRET assay.
Data set [8] addresses cAMP-dependent protein kinase catalytic subunit alpha (Homo sapiens) (UniProt P17612). The experiment in a line: Inhibition of PRKACA at 10 uM after 60 mins by TR-FRET assay.
For data set [9], the target named is T2, Serine/threonine-protein kinase Chk1 (Homo sapiens) (UniProt O14757).
T2 sequence (whole entry): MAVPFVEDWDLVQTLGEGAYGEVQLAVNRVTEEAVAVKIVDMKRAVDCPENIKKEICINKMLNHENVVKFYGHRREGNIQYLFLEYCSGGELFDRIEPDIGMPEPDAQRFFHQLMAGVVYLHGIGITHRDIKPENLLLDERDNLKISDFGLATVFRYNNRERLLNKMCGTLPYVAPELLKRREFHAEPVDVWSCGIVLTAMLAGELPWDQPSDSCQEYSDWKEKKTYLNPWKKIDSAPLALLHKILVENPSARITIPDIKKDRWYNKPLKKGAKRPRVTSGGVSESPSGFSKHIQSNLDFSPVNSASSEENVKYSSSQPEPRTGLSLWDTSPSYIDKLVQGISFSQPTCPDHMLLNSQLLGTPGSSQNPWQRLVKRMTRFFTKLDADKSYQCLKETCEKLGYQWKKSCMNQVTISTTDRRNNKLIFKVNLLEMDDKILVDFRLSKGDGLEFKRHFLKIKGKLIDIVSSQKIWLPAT
As to the kind of experiment: Inhibition of CHEK1 at 10 uM after 60 mins by TR-FRET assay.

A short description of data set [10]: Apparent permeability of the compound from apical to basolateral direction in MDCK2 cells at 5 uM after 120 mins. The data set is classed as ADME, cell-based, Canis lupus familiaris, MDCK-II. Conditions: dog, MDCK.
Data set [11] addresses Proto-oncogene tyrosine-protein kinase receptor Ret (Homo sapiens) (UniProt P07949). The experiment in a line: Inhibition of RET at 10 uM after 60 mins by TR-FRET assay.
A short description of data set [12]: Oxidative metabolic stability in mouse liver microsomes assessed as compound remaining at 2 uM after 30 mins. Type of data set: ADME, Microsome. Conditions: read-out: Stability.
Data set [13] deals with Serine/threonine-protein kinase PAK 4 (Homo sapiens) (UniProt O96013). The experiment in a line: Inhibition of PAK4 at 10 uM after 60 mins by TR-FRET assay.
Data set [14] is described as follows: Efflux ratio, ratio of permeability from apical to basolateral in MDCK2 cells over expressing MDR1 in presence of P-gp inhibitor to permeability from apical to basolateral in MDCK2 cells over expressing MDR1 in absence of P-gp inhibitor at 5 uM after 120 mins. The data set is classed as ADME, cell-based, Canis lupus familiaris. The conditions noted are these: dog, mdck-ii, 2 h.

The target of data set [15] is T3, Dual specificity protein kinase TTK (Homo sapiens) (UniProt P33981).
T3 sequence (whole entry): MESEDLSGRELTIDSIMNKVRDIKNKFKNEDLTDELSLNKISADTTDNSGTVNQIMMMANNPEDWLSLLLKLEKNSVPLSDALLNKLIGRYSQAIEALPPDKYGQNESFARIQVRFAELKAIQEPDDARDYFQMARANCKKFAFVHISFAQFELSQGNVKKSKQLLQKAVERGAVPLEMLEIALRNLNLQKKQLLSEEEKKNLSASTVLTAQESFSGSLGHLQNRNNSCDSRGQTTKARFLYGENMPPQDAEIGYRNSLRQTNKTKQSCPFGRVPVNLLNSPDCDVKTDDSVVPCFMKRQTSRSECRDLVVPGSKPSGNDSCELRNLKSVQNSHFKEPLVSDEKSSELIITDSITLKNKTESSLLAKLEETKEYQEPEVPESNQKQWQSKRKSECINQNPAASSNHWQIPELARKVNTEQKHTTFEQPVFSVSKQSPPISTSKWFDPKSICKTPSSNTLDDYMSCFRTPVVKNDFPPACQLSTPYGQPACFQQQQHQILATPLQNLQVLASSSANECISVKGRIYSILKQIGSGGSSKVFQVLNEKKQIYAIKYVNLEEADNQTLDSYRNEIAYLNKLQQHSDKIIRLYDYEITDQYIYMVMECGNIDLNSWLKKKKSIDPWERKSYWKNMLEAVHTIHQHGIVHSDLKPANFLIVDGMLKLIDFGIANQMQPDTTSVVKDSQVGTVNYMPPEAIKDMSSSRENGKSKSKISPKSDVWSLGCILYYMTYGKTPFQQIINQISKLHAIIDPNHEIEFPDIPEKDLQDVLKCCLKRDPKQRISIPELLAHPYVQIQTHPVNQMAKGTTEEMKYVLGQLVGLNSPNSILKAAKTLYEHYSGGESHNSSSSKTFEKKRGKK
As to the kind of experiment: Inhibition of TTK at 10 uM after 60 mins by TR-FRET assay.

The target in data set [16] is Serine/threonine-protein kinase 16 (Homo sapiens) (UniProt O75716). The experiment in a line: Inhibition of STK16 at 10 uM after 60 mins by TR-FRET assay.
For data set [17], the target named is Interleukin-1 receptor-associated kinase 4 (Homo sapiens) (UniProt Q9NWZ3). As to the kind of experiment: Inhibition of human IRAK4 at 10 uM after 60 mins by TR-FRET assay. The conditions noted are these: values are per cent of control.
Interleukin-1 receptor-associated kinase 4 (Homo sapiens), sequence (Q9NWZ3 whole entry): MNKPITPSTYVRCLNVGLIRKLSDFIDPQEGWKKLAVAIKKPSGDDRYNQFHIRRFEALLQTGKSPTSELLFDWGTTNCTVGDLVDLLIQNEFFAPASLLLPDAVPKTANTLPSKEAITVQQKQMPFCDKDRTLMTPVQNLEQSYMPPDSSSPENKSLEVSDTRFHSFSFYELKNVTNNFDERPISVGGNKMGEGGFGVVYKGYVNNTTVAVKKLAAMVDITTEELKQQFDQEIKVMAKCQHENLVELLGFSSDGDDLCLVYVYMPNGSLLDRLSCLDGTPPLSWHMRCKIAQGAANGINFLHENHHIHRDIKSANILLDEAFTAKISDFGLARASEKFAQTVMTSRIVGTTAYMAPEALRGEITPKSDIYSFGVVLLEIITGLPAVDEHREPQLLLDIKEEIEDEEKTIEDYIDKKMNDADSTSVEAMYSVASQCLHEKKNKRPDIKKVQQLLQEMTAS

Serine/threonine-protein kinase 16 (Homo sapiens), sequence (O75716 whole entry): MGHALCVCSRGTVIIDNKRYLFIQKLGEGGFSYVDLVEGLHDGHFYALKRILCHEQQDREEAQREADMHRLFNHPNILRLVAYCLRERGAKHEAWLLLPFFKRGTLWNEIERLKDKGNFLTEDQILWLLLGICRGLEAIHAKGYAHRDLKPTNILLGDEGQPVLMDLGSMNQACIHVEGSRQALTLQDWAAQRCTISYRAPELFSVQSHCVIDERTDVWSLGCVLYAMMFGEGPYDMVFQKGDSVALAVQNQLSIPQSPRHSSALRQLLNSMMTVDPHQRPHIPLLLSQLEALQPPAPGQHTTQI
Proto-oncogene tyrosine-protein kinase receptor Ret (Homo sapiens), sequence (P07949 whole entry): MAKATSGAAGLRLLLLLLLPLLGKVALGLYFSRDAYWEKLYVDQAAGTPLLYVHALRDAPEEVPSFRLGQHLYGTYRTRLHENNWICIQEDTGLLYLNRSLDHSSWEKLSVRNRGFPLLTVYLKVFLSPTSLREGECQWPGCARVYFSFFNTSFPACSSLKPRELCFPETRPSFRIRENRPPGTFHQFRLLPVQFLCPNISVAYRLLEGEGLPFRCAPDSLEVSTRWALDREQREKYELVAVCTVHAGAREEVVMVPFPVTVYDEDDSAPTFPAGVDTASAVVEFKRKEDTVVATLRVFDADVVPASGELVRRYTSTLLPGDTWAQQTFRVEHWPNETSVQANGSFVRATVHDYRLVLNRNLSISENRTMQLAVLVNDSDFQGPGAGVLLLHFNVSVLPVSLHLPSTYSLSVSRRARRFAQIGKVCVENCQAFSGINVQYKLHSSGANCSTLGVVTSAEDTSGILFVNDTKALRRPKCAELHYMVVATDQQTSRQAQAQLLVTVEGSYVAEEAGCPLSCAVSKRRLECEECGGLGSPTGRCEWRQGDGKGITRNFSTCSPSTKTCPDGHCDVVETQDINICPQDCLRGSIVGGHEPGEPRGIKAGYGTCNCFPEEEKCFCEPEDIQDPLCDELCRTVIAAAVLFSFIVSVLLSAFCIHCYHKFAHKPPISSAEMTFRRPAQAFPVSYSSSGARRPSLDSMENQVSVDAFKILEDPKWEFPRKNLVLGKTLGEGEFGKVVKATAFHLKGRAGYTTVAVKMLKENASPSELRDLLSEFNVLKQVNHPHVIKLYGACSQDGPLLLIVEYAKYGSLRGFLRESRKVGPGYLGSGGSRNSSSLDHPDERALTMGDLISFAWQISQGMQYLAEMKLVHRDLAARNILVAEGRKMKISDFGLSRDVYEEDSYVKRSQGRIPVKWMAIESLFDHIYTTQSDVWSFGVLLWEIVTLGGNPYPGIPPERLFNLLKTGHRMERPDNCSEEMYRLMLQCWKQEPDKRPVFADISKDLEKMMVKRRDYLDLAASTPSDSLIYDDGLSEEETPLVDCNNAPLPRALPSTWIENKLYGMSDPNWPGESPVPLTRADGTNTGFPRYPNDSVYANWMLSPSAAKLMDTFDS
Mitogen-activated protein kinase 10, sequence (P53779 whole entry): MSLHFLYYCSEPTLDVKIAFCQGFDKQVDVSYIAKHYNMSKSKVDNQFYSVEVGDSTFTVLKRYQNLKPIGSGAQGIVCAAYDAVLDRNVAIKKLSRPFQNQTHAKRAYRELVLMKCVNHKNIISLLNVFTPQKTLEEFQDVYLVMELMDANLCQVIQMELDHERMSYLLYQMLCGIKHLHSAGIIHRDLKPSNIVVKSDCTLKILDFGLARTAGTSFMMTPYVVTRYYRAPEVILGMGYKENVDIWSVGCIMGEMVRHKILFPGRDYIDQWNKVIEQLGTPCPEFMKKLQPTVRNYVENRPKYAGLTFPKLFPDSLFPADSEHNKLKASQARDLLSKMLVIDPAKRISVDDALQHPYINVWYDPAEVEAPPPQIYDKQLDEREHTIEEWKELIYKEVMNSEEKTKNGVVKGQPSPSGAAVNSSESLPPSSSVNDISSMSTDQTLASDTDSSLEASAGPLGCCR
Serine/threonine-protein kinase PAK 4 (Homo sapiens), sequence (O96013 whole entry, looked up): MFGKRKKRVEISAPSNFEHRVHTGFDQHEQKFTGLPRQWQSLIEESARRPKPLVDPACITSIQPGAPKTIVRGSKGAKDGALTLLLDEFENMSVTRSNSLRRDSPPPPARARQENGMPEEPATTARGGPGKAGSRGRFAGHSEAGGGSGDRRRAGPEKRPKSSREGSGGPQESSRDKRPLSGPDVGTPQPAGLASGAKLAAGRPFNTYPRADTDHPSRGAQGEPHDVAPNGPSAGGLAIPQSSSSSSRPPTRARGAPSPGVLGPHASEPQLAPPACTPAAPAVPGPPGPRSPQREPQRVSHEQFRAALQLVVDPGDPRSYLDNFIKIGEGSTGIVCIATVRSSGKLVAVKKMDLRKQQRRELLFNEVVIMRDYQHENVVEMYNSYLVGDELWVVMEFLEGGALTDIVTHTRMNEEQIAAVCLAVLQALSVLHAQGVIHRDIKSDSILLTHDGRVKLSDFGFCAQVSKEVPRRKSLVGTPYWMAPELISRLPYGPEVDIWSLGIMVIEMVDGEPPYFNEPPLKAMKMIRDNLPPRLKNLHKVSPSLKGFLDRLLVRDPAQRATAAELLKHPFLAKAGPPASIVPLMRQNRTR
Tyrosine-protein kinase JAK1 (Homo sapiens), sequence (P23458 whole entry): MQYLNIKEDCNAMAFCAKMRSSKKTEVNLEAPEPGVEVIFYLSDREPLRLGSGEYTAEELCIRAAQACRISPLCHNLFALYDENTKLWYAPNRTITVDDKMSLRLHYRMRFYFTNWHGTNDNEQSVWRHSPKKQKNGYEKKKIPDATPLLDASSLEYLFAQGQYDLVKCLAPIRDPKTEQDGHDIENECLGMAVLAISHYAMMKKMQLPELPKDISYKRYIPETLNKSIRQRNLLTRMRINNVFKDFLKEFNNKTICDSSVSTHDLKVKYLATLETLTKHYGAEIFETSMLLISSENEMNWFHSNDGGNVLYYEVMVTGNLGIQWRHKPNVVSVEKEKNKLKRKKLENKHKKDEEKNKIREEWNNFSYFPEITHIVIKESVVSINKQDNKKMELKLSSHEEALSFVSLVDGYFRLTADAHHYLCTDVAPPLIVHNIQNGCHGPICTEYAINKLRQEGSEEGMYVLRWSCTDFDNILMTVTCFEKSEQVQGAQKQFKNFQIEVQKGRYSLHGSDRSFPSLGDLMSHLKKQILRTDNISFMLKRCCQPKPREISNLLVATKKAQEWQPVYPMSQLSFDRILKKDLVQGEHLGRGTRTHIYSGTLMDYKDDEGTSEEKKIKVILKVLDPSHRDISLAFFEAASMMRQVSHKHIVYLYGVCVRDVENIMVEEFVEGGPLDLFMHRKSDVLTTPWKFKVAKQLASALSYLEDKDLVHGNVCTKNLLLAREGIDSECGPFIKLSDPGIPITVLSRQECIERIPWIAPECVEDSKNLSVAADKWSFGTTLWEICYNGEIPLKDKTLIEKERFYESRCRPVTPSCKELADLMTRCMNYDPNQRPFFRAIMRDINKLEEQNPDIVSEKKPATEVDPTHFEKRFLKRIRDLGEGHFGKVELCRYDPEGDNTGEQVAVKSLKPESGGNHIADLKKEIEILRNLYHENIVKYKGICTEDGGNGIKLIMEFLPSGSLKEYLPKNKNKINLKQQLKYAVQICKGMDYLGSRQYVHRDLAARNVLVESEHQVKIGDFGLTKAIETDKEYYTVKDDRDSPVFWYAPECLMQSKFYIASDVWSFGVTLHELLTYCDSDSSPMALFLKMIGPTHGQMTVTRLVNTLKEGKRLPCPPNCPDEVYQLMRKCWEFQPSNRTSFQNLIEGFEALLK
Tyrosine-protein kinase Lck (Homo sapiens), sequence (P06239 2-509 limits assumed): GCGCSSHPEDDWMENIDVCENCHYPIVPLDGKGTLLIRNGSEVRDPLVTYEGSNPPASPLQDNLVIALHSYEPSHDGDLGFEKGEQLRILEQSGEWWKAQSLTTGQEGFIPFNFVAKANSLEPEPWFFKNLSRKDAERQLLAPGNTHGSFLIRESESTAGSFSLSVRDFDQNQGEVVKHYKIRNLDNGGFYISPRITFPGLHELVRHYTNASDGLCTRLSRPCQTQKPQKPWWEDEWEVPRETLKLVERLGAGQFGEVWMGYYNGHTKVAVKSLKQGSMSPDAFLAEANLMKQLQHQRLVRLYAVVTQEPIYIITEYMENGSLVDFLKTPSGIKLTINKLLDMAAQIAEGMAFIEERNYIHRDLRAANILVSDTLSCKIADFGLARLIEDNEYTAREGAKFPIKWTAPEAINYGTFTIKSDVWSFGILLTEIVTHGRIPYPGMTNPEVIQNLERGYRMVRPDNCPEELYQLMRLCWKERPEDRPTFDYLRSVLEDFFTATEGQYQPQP

What is called inhibition is the change of the read-out against control, counted positive when it falls. Usually IC50 stands for the concentration needed to halve the response being measured. A word on the EC50: it is the concentration at which the effect is half-maximal. For orientation: Papp A→B means how fast a substance crosses the layer from the apical side. For the compound `O=c1n(Cc2ccncc2)nc(-c2ccnc(NC3CCCCC3)c2)n1-c1ccc2ccccc2c1`, the inhibition is 5% in data set [1]; 9% in data set [2]; 7% in data set [4]; -4% in data set [7]; 6% in [8]; -9% in data set [9]. Further, the inhibition is 3% in data set [11] and -1% in [13]. The IC50 in data set [3] turned out to be 0.029 µM. Further, the remaining at 0.5 h, 2 µM in data set [5] was 2%; in data set [12], 48%. The EC50 in data set [6] turned out to be 12 µM. Also, the Papp A→B at 2 h, 5 µM in data set [10] is 8.1 ×10⁻⁶ cm/s.
For the compound `O=c1n(Cc2ccccn2)nc(-c2ccnc(NC3CCOCC3)c2)n1-c1ccc2ccccc2c1`, the inhibition is -9% in data set [1]; -2% in [2]; 1% in [4]; 0% in data set [15]; -9% in data set [16]; 2% in data set [8]. Besides, the inhibition was -9% in data set [9] and -1% in data set [11]. Further, the IC50 in data set [3] was determined as 0.054 µM. Besides, the Ratio in [14] was determined as 1.4. Further, the values for the remaining at 0.5 h, 2 µM in [5] and in data set [12] were 40% and 1.4%, respectively. In addition, the Papp A→B at 2 h, 5 µM in [10] is 18.5 ×10⁻⁶ cm/s.
For the compound `O=c1[nH]nc(-c2ccnc(NC3CCOCC3)c2)n1-c1ccc2ccccc2c1`, the inhibition is -4% in data set [1]; -3% in data set [2]; 14% in data set [4]; 44% in data set [15]; 38% in [16]; -3% in data set [7]. Also, the inhibition in data set [8] turned out to be 6%; in data set [11], 11%. Also, in data set [3], the IC50 worked out at 0.085 µM. Moreover, in [14], the Ratio worked out at 12. Further, the results for the remaining at 0.5 h, 2 µM in data set [5] and in data set [12] were 73% and 12%, respectively. For the same compound, in [10], the Papp A→B at 2 h, 5 µM was 15.7 ×10⁻⁶ cm/s.
Regarding `O=c1[nH]nc(-c2ccnc(NC3CCCCC3)c2)n1-c1ccc2ccccc2c1`, the inhibition in [1] was -9%; in [2], -10%; in [4] it was 8%; in [15] it was 10%; in data set [16], -1%; in [7] it was 1%. The inhibition in data set [8] is 3%; in [9] it was -5%; in data set [11], 4%; in data set [13] it was -2%. For the same compound, the IC50 in [3] turned out to be 0.024 µM. Also, the Ratio in data set [14] is listed as 2.6. Besides, the results for the remaining at 0.5 h, 2 µM in data set [5] and in [12] were 57% and 2.6%, respectively. Moreover, the EC50 in data set [6] is > 50 µM. Besides, the Papp A→B at 2 h, 5 µM in data set [10] was 0.9 ×10⁻⁶ cm/s.
By residual activity is commonly meant the signal under treatment as a percentage of the control signal. As for `S=c1[nH]nc(-c2ccncc2)n1-c1ccc2ccccc2c1`, the residual activity in [17] turned out to be 114%.
For `O=c1n(C2CCOCC2)nc(-c2ccnc(NC3CCCCC3)c2)n1-c1ccc2ccccc2c1`, the inhibition in [1] is -10%; in data set [2], -6%; in data set [4], 26%; in data set [15], 3%; in data set [7], 1%; in data set [8], 13%. The inhibition in [9] was -4%; in [11] it was 10%; in data set [13] it was 27%.
Regarding `O=c1[nH]nc(-c2ccnc(NC3CCCOC3)c2)n1-c1ccc2ccccc2c1` (stereo unspecified), the inhibition was -5% in [1]; 4% in data set [2]; 70% in [4]; 30% in data set [15]; 21% in data set [16]; 1% in data set [7]. For the same compound, the inhibition is 47% in data set [8], -9% in [9], 37% in data set [11] and 69% in data set [13]. For the same compound, the IC50 in [3] amounted to 0.032 µM.
